In PubChem BioAssay AID1963428 (Molecular Pharmacology Branch, DTP, NCI, 2024):

Tested on: 171881-019-R-J1-PDC complex spheroid growth, % test/control
Assay: Anticancer human tumor 171881-019-R-J1-PDC patient-derived invasive breast carcinoma cell line growth inhibition [Asc]
Conditions: for IC50: curve of first compound; for viability, T/C: stronger effect = lower value
Procedure, shortened: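 Concentration series start at each agent's clinical Cmax, or at 10 microM when none is established, and drop in half-log steps; agents are applied alone or together to complex spheroids built with HUVEC and hMSC.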

[1] = second compound 0.1 µM, first compound 0.0316 µM
[2] = second compound 0.1 µM, first compound 0.1 µM
[3] = second compound 0.1 µM, first compound 0.316 µM
[4] = second compound 0.1 µM, first compound 1 µM
[5] = second compound 0.1 µM, first compound 3.16 µM
[6] = second compound 0.1 µM, first compound 10 µM
[7] = second compound 0.316 µM, first compound 0.0316 µM
[8] = second compound 0.316 µM, first compound 0.1 µM
[9] = second compound 0.316 µM, first compound 0.316 µM
[10] = second compound 0.316 µM, first compound 1 µM
[11] = second compound 0.316 µM, first compound 3.16 µM
[12] = second compound 0.316 µM, first compound 10 µM
[13] = second compound 1 µM, first compound 0.0316 µM
[14] = second compound 1 µM, first compound 0.1 µM
[15] = second compound 1 µM, first compound 0.316 µM
[16] = second compound 1 µM, first compound 1 µM
[17] = second compound 1 µM, first compound 3.16 µM
[18] = second compound 1 µM, first compound 10 µM
[19] = second compound 3.16 µM, first compound 0.0316 µM
[20] = second compound 3.16 µM, first compound 0.1 µM
[21] = second compound 3.16 µM, first compound 0.316 µM
[22] = second compound 3.16 µM, first compound 1 µM
[23] = second compound 3.16 µM, first compound 3.16 µM
[24] = second compound 3.16 µM, first compound 10 µM
[25] = second compound 10 µM, first compound 0.0316 µM
[26] = second compound 10 µM, first compound 0.1 µM
[27] = second compound 10 µM, first compound 0.316 µM
[28] = second compound 10 µM, first compound 1 µM
[29] = second compound 10 µM, first compound 3.16 µM
[30] = second compound 10 µM, first compound 10 µM
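For viability, T/C in this document: spheroids exposed to compounds for 7 days.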

With `C#Cc1c(F)ccc2cc(O)cc(-c3ncc4c(N5CC6CCC(C5)N6)nc(OCC56CCCN5CC(F)C6)nc4c3F)c12` (stereo not given) + Cc1c(S(C)(=O)=O)c(-c2cc(F)cc(N3CCN(c4ccc(NS(=O)(=O)c5ccc(NC(CCN6CCC(C(=O)OCCCP(=O)(O)O)CC6)CSc6ccccc6)c(S(=O)(=O)C(F)(F)F)c5)cc4)CC3)c2)c(-c2ccc(Cl)cc2)n1C(C)C the IC50 (second compound 0.1 µM) was > 10 µM, the IC50 (second compound 0.316 µM) was > 10 µM and the IC50 (second compound 1 µM) was > 10 µM. For the same molecule, the IC50 (second compound 3.16 µM) was 6.86 µM, the IC50 (second compound 10 µM) was 4 µM and the viability, T/C [1] was 103%. For the same molecule, the viability, T/C [2] was 116%, the viability, T/C [3] was 152% and the viability, T/C [4] was 167%. It also gave a viability, T/C [5] of 154%, a viability, T/C [6] of 111% and a viability, T/C [7] of 138%. For the same molecule, the viability, T/C [8] was 169%, the viability, T/C [9] was 219% and the viability, T/C [10] was 165%. The viability, T/C [11] was 112%, the viability, T/C [12] was 86% and the viability, T/C [13] was 162%. It also gave a viability, T/C [14] of 177%, a viability, T/C [15] of 165% and a viability, T/C [16] of 131%. It also gave a viability, T/C [17] of 84.3%, a viability, T/C [18] of 61.1% and a viability, T/C [19] of 179%. For the same molecule, the viability, T/C [20] was 179%, the viability, T/C [21] was 155% and the viability, T/C [22] was 97.6%. The viability, T/C [23] was 63.2%, the viability, T/C [24] was 43% and the viability, T/C [25] was 179%. For the same molecule, the viability, T/C [26] was 186%, the viability, T/C [27] was 135% and the viability, T/C [28] was 91.5%. It also gave a viability, T/C [29] of 58% and a viability, T/C [30] of 33.9%.

With `C=C(F)C(=O)N1CCN(c2nc(OCC3CCCN3C)nc3c2CCN(c2cccc4cccc(Cl)c24)C3)CC1CC#N` (stereo not given) + Cc1c(S(C)(=O)=O)c(-c2cc(F)cc(N3CCN(c4ccc(NS(=O)(=O)c5ccc(NC(CCN6CCC(C(=O)OCCCP(=O)(O)O)CC6)CSc6ccccc6)c(S(=O)(=O)C(F)(F)F)c5)cc4)CC3)c2)c(-c2ccc(Cl)cc2)n1C(C)C the IC50 (second compound 0.1 µM) was 5.61 µM, the IC50 (second compound 0.316 µM) was 5.89 µM and the IC50 (second compound 1 µM) was 4.12 µM. The IC50 (second compound 3.16 µM) was 2.53 µM, the IC50 (second compound 10 µM) was 2.43 µM and the viability, T/C [1] was 93.8%. The viability, T/C [2] was 86.7%, the viability, T/C [3] was 106% and the viability, T/C [4] was 90.9%. For the same molecule, the viability, T/C [5] was 118%, the viability, T/C [6] was 0.36% and the viability, T/C [7] was 130%. It also gave a viability, T/C [8] of 129%, a viability, T/C [9] of 113% and a viability, T/C [10] of 125%. For the same molecule, the viability, T/C [11] was 108%, the viability, T/C [12] was 0.3% and the viability, T/C [13] was 124%. For the same molecule, the viability, T/C [14] was 136%, the viability, T/C [15] was 133% and the viability, T/C [16] was 131%. The viability, T/C [17] was 64.8%, the viability, T/C [18] was 0.25% and the viability, T/C [19] was 161%. The viability, T/C [20] was 149%, the viability, T/C [21] was 144% and the viability, T/C [22] was 185%. The viability, T/C [23] was 23.6%, the viability, T/C [24] was 0.3% and the viability, T/C [25] was 179%. The viability, T/C [26] was 191%, the viability, T/C [27] was 196% and the viability, T/C [28] was 202%. It also gave a viability, T/C [29] of 15.2% and a viability, T/C [30] of 0.27%.

In the case of `CCN1C(C(=O)NC23CCC(C(=O)O)(CC2)CC3)C(c2cccc(Cl)c2F)C2(C(=O)Nc3cc(Cl)ccc32)C12CCCCC2` (stereo not given) + Cc1c(S(C)(=O)=O)c(-c2cc(F)cc(N3CCN(c4ccc(NS(=O)(=O)c5ccc(NC(CCN6CCC(C(=O)OCCCP(=O)(O)O)CC6)CSc6ccccc6)c(S(=O)(=O)C(F)(F)F)c5)cc4)CC3)c2)c(-c2ccc(Cl)cc2)n1C(C)C, the IC50 (second compound 0.1 µM) is reported as > 3 µM, the IC50 (second compound 0.316 µM) is reported as > 3 µM and the IC50 (second compound 1 µM) is reported as > 3 µM. The IC50 (second compound 3.16 µM) was > 3 µM, the IC50 (second compound 10 µM) was > 3 µM and the viability, T/C (second compound 0.1 µM, first compound 0.00949 µM) was 82.5%. It also gave a viability, T/C (second compound 0.1 µM, first compound 0.03 µM) of 107%, a viability, T/C (second compound 0.1 µM, first compound 0.0949 µM) of 102% and a viability, T/C (second compound 0.1 µM, first compound 0.3 µM) of 90.5%. It also gave a viability, T/C (second compound 0.1 µM, first compound 0.949 µM) of 105%, a viability, T/C (second compound 0.1 µM, first compound 3 µM) of 120% and a viability, T/C (second compound 0.316 µM, first compound 0.00949 µM) of 100%. It also gave a viability, T/C (second compound 0.316 µM, first compound 0.03 µM) of 110%, a viability, T/C (second compound 0.316 µM, first compound 0.0949 µM) of 129% and a viability, T/C (second compound 0.316 µM, first compound 0.3 µM) of 105%. It also gave a viability, T/C (second compound 0.316 µM, first compound 0.949 µM) of 144%, a viability, T/C (second compound 0.316 µM, first compound 3 µM) of 146% and a viability, T/C (second compound 1 µM, first compound 0.00949 µM) of 116%. It also gave a viability, T/C (second compound 1 µM, first compound 0.03 µM) of 133%, a viability, T/C (second compound 1 µM, first compound 0.0949 µM) of 129% and a viability, T/C (second compound 1 µM, first compound 0.3 µM) of 117%. It also gave a viability, T/C (second compound 1 µM, first compound 0.949 µM) of 130%, a viability, T/C (second compound 1 µM, first compound 3 µM) of 167% and a viability, T/C (second compound 3.16 µM, first compound 0.00949 µM) of 152%. The viability, T/C (second compound 3.16 µM, first compound 0.03 µM) was 147%, the viability, T/C (second compound 3.16 µM, first compound 0.0949 µM) was 159% and the viability, T/C (second compound 3.16 µM, first compound 0.3 µM) was 162%. It also gave a viability, T/C (second compound 3.16 µM, first compound 0.949 µM) of 146%, a viability, T/C (second compound 3.16 µM, first compound 3 µM) of 163% and a viability, T/C (second compound 10 µM, first compound 0.00949 µM) of 192%. It also gave a viability, T/C (second compound 10 µM, first compound 0.03 µM) of 179%, a viability, T/C (second compound 10 µM, first compound 0.0949 µM) of 182% and a viability, T/C (second compound 10 µM, first compound 0.3 µM) of 185%. The viability, T/C (second compound 10 µM, first compound 0.949 µM) was 193% and the viability, T/C (second compound 10 µM, first compound 3 µM) was 172%.

With `CNC(C)C(=O)NC1CN(S(=O)(=O)c2cccc(S(=O)(=O)N3CCC4CCC(C(=O)NC(c5ccccc5)c5ccccc5)N4C(=O)C(NC(=O)C(C)NC)C3)c2)CCC2CCC(C(=O)NC(c3ccccc3)c3ccccc3)N2C1=O` (stereo not given) + Cc1c(S(C)(=O)=O)c(-c2cc(F)cc(N3CCN(c4ccc(NS(=O)(=O)c5ccc(NC(CCN6CCC(C(=O)OCCCP(=O)(O)O)CC6)CSc6ccccc6)c(S(=O)(=O)C(F)(F)F)c5)cc4)CC3)c2)c(-c2ccc(Cl)cc2)n1C(C)C the IC50 (second compound 0.1 µM) was > 1 µM, the IC50 (second compound 0.316 µM) was > 1 µM and the IC50 (second compound 1 µM) was > 1 µM. For the same molecule, the IC50 (second compound 3.16 µM) was > 1 µM, the IC50 (second compound 10 µM) was > 1 µM and the viability, T/C (second compound 0.1 µM, first compound 0.00316 µM) was 100%. For the same molecule, the viability, T/C (second compound 0.1 µM, first compound 0.01 µM) was 90.4%, the viability, T/C [1] was 96% and the viability, T/C [2] was 87.8%. It also gave a viability, T/C [3] of 82.5%, a viability, T/C [4] of 73.2% and a viability, T/C (second compound 0.316 µM, first compound 0.00316 µM) of 110%. The viability, T/C (second compound 0.316 µM, first compound 0.01 µM) was 109%, the viability, T/C [7] was 94.9% and the viability, T/C [8] was 112%. It also gave a viability, T/C [9] of 90.8%, a viability, T/C [10] of 97.2% and a viability, T/C (second compound 1 µM, first compound 0.00316 µM) of 90.1%. It also gave a viability, T/C (second compound 1 µM, first compound 0.01 µM) of 133%, a viability, T/C [13] of 129% and a viability, T/C [14] of 107%. It also gave a viability, T/C [15] of 104%, a viability, T/C [16] of 119% and a viability, T/C (second compound 3.16 µM, first compound 0.00316 µM) of 138%. It also gave a viability, T/C (second compound 3.16 µM, first compound 0.01 µM) of 141%, a viability, T/C [19] of 144% and a viability, T/C [20] of 130%. It also gave a viability, T/C [21] of 126%, a viability, T/C [22] of 156% and a viability, T/C (second compound 10 µM, first compound 0.00316 µM) of 204%. It also gave a viability, T/C (second compound 10 µM, first compound 0.01 µM) of 171%, a viability, T/C [25] of 172% and a viability, T/C [26] of 183%. It also gave a viability, T/C [27] of 161% and a viability, T/C [28] of 173%.
